For 12 compounds, IC50 results are on record in patent US20060229358A1, “Pharmaceutical composition containing flavonoids” (Taipei Medical University, priority 2005, published 2006).

The term IC50 denotes the concentration needed to halve the response being measured.

One assay concerns the target PDE5 (Cavia porcellus, UniProt H0VD23). The experiment in a line: Inhibition of cyclic nucleotide PDE activity (Assay I), PDE5. The class given is biochemical, guinea pig. The protocol: Under a protocol approved by the Animal Care and Use Committee of Taipei Medical University, five male guinea pigs (Hartley), weighing 500-600 g, were sacrificed. The lungs (15 g) or hearts (4 g) taken therefrom were chopped into small pieces and homogenized with a glass/teflon homogenizer (Glas-Col, Terre Haute, Ind., USA) in 10 volumes of cold medium (pH 6.5) containing 20 mM Bis-Tris, 2 mM benzamidine, 2 mM EDTA, 50 mM sodium chloride, 0.1 mM phenylmethanesulfonyl fluoride (PMSF), and 1 mM dithiothreitol. At 4° C., the homogenate was centrifuged at 170 g for 15 min, and the supernatant thereof was then re-centrifuged at 40,000 g for 30 min. […] The column was washed with two bed volumes of homogenate buffer to remove unbound material, where the resin beads therein will bind with proteins, such as PDE proteins. […] And then the samples were frozen at −70° C.
In order to eliminate possible contamination of PDE5 by PDE1, the above-collected fractions with enzyme activity was further purified on a calmodulin-agarose column. The column (1.6 cm×4 cm) was pre-equilibrated by a buffer A, which contains 20 mM Bis-tris, 1 mM dithiothreitol, 2 mM benzamidine, 50 mM NaCl, 3 mMMgCl2, 0.1 mM CaCl2, and 0.1 mM PMSF, pH 6.5. The sample (the mixture of PDE5 and PDE1), being purified by the above-mentioned column, with the CaCl2 concentration thereof adjusted to at least 2 mM previously, was loaded and allowed to be absorbed on the gel for 30 min. Then, the PDE isozymes were eluted by stepwise elution using 20 ml of buffer A with 1 M NaCl followed by 20 ml of buffer A with 1 M NaCl and with 1 mM EGTA.
(§1) The activities of PDE1-5 in the homogenate were measured with a two-step procedure according to the method of Thompson and Appleman, using cAMP with [^3H]-cAMP or cGMP with [^3 H]-cGMP as substrates. The PDE enzyme prepared (25 μl) with 10 μl inhibitor or the solvents therefor was incubated for 30 min at 37° C. in a total assay buffer, where the final volume of the assay is amounted to 100 μl. In accordance with the features of the PDE isozymes, the assay buffer contains 50 mM Tris/HCl (pH 7.4), 3 mM MgCl2, 1 mM dithiothreitol, and 0.05% BSA, and optionally contains 1 uM cAMP with 0.2 μCi [^3H]-cAMP as a substrate alone or in the presence of 0.1 unit calmodulin with 10 μM CaCl2, or 5 μM cGMP, and 1 μM cGMP with 0.2 μCi [^3H]-cGMP as another substrate alone or in the presence of 0.1 unit calmodulin with 10 μM CaCl2.
(§2) The PDE enzyme and the inhibitors (or their solvent) therefor were mixed and incubated on ice for 30 min previously, and then mixed with the assay buffer. The assay was initiated by transferring the mixture to a water bath at 37° C. Following the other 30 min incubation, the reaction was stopped by transferring the reaction vessel to a bath of boiling water for 3 min. After cooling on ice, 20 μl of the 1 mg/ml of Crotalus atrox venom was added to the reaction mixture, and the mixture was incubated at 37° C. for 10 min. The uncatalyzed substrates, such as cAMP, [^3H]-cAMP, cGMP, or [^3H]-cGMP were removed by the addition of 500 μl of a 1-in-1 Tris-HCl (40 mM) buffer suspension of Dowex resin (1×8-200) with incubation on ice for 30 min, since the bindings of the cyclic nucleotides and the resin. Each tube was then centrifuged for 2 min at 6000 rpm, and 100 μl of the supernatant was removed and counted by a β-counter for calculating the enzyme (PDEs) activity.
The IC50 values of flavonoids and various reference drugs were calculated using non-linear regression analysis by the software SigmaPlot 7.0 (Sigma Chemical, St. Louis Mo., USA).

Another assay deals with PDE3. In words: Inhibition of cyclic nucleotide PDE activity (Assay I), PDE3. Type of assay: biochemical, guinea pig. The following applies: mean ± S.E.M. (n); read-out: IC50 on phosphodiesterase isozyme 3. As to the method:
Under a protocol approved by the Animal Care and Use Committee of Taipei Medical University, five male guinea pigs (Hartley), weighing 500-600 g, were sacrificed. The lungs (15 g) or hearts (4 g) taken therefrom were chopped into small pieces and homogenized with a glass/teflon homogenizer (Glas-Col, Terre Haute, Ind., USA) in 10 volumes of cold medium (pH 6.5) containing 20 mM Bis-Tris, 2 mM benzamidine, 2 mM EDTA, 50 mM sodium chloride, 0.1 mM phenylmethanesulfonyl fluoride (PMSF), and 1 mM dithiothreitol. At 4° C., the homogenate was centrifuged at 170 g for 15 min, and the supernatant thereof was then re-centrifuged at 40,000 g for 30 min. […] The column was washed with two bed volumes of homogenate buffer to remove unbound material, where the resin beads therein will bind with proteins, such as PDE proteins. Proteins bound to the Q-sepharose beads were eluted with various concentrations (0.23, 0.34, 0.44, 0.69, and 1.00 M) of NaCl dissolved in homogenate buffer (for each concentration, 40-50 mL elution buffer were applied) at a flow rate of 30 ml/h. Fractions (3 ml each) were collected, and ethylene glycol (EG) was added thereto until a final concentration of 30% (v/v). And then the samples were frozen at −70° C.
as §1, §2
The IC50 values of flavonoids and various reference drugs were calculated using non-linear regression analysis by the software SigmaPlot 7.0 (Sigma Chemical, St. Louis Mo., USA). All values are shown as the mean±S.E.M. Differences among values, which are equal or greater to three groups, were statistically calculated by one-way analysis of variance (ANOVA), and then determined by the least significant difference (LSD). The difference between two values, however, was determined by use of Student's unpaired t-test. Differences were considered statistically significant if the P-value was less than 0.05.

Setting [1] is: mean ± S.E.M. (n), read-out: IC50 on phosphodiesterase isozyme 5.

Each structure is given as a SMILES string. Read-outs that look alike come from different tables or passages of the source. Bounds are passed on as bounds.

Take `O=c1cc(-c2ccc(O)c(O)c2)oc2cc(O)cc(O)c12` [Luteolin]: the IC50 at PDE5 (setting [1]) came out at 19.3 ± 3.2 µM; in the assay with PDE3 it was 10.1 ± 1.8 µM.
`O=c1c(-c2ccc(O)cc2)coc2cc(O)cc(O)c12` [Genistein]: the IC50 at PDE5 is 73.9 ± 7.1 µM; in the assay on PDE3, 12.9 ± 5.2 µM.
On to `O=c1cc(-c2ccc(O)c(O)c2)oc2cc(O[C@@H]3O[C@H](CO)[C@@H](O)[C@H](O)[C@H]3O)cc(O)c12` [Luteolin-7-glucoside], for which the IC50 at PDE5 (setting [1]) and in the assay with PDE3 was more than 100 µM in each case.
Turning to `O=c1cc(-c2ccccc2)oc2cc(O)cc(O)c12` [Chrysin], the IC50 on PDE5 (setting [1]) and in the assay on PDE3 was more than 100 µM in each case.
For the compound `O=c1cc(-c2ccc(O)cc2)oc2cc(O)cc(O)c12` [Apigenin], the IC50 at PDE5 (setting [1]) was more than 100 µM; in the assay on PDE3, 10.5 ± 3.5 µM.
As to `O=C1CC(c2ccc(O)c(O)c2)Oc2cc(O)cc(O)c21` (stereo not drawn) [Eriodictyol], the values for the IC50 on PDE5 (setting [1]) and with PDE3 were more than 100 µM and 52.5 ± 17.7 µM, respectively.
For `O=c1c(O)c(-c2cc(O)c(O)c(O)c2)oc2cc(O)cc(O)c12` [Myricetin], the IC50 at PDE5 (setting [1]) was more than 100 µM; in the assay on PDE3 it was 12.4 ± 3.3 µM.
For `O=c1c(O)c(-c2ccc(O)c(O)c2)oc2cc(O)cc(O)c12` [Quercetin], the IC50 at PDE5 (setting [1]) was more than 100 µM; in the assay on PDE3 it was 5.6 ± 1 µM.
On to `COc1ccc(-c2coc3cc(O)cc(O)c3c2=O)cc1` [Biochanin A], for which the IC50 at PDE5 (setting [1]) and in the assay on PDE3 was more than 100 µM throughout.
For the compound `COc1cc(O)c2c(=O)c(-c3ccc(O)cc3)coc2c1` [Prunetin], the IC50 against PDE5 and with PDE3 was more than 100 µM in each case.
As for `O=c1c(-c2ccc(O)cc2)coc2cc(O)ccc12` [Daidzein], the IC50 at PDE5 (setting [1]) is more than 100 µM; in the assay with PDE3, 28.6 ± 8.5 µM.
The like results for `COc1ccc(C2CC(=O)c3c(O)cc(O)cc3O2)cc1O` (stereo not drawn) [Hesperetin] were, in that order, more than 100 µM and more than 100 µM.
